These results are taken from PubChem BioAssay AID248 (DTP/NCI, 2004).

For the experiment, the system named is L1210 leukemia ip in BDF1 mice, survival T/C. Kind of experiment: NCI In Vivo Anticancer Drug Screen. Data for tumor model L1210 Leukemia (intraperitoneal) in B6D2F1 (BDF1) mice. The following applies: endpoint: mean survival time, higher = longer survival. The method, boiled down: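 Transplanted-tumor mice were given test agent; controls received vehicle only. Survival readings from the two groups were divided (treated over control).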

The mark [1] stands for this setting: dose: 100.0 mg/kg/injection, schedule: Q01DX001 (ip), vehicle: saline.
Setting [2] is: dose: 200.0 mg/kg/injection, schedule: Q01DX001 (ip), vehicle: saline.
Setting [3] is: dose: 400.0 mg/kg/injection, schedule: Q01DX001 (ip), vehicle: saline.
Where [4] appears, read: dose: 100.0 mg/kg/injection, schedule: Q01DX001 (ip), vehicle: Klucel (hydroxypropylcellulose) (HPC).
[5] abbreviates: dose: 200.0 mg/kg/injection, schedule: Q01DX001 (ip), vehicle: Klucel (hydroxypropylcellulose) (HPC).
Setting [6] is: dose: 400.0 mg/kg/injection, schedule: Q01DX001 (ip), vehicle: Klucel (hydroxypropylcellulose) (HPC).
[7] abbreviates: dose: 100.0 mg/kg/injection, schedule: Q04DX003 (ip), vehicle: Klucel (hydroxypropylcellulose) (HPC).
The mark [8] stands for this setting: dose: 200.0 mg/kg/injection, schedule: Q04DX003 (ip), vehicle: Klucel (hydroxypropylcellulose) (HPC).
Setting [9] is: dose: 400.0 mg/kg/injection, schedule: Q04DX003 (ip), vehicle: Klucel (hydroxypropylcellulose) (HPC).
The mark [10] stands for this setting: dose: 100.0 mg/kg/injection, schedule: Q01DX009 (ip), vehicle: saline with Tween-80.
Where [11] appears, read: dose: 100.0 mg/kg/injection, schedule: Q04DX002 (ip), vehicle: saline with Tween-80.
Setting [12] is: dose: 200.0 mg/kg/injection, schedule: Q01DX009 (ip), vehicle: saline with Tween-80.
[13] abbreviates: dose: 200.0 mg/kg/injection, schedule: Q04DX002 (ip), vehicle: saline with Tween-80.
Where [14] appears, read: dose: 400.0 mg/kg/injection, schedule: Q01DX009 (ip), vehicle: saline with Tween-80.
Where [15] appears, read: dose: 400.0 mg/kg/injection, schedule: Q04DX002 (ip), vehicle: saline with Tween-80.
[16] abbreviates: dose: 100.0 mg/kg/injection, schedule: Q01DX009 (ip), vehicle: Klucel (hydroxypropylcellulose) (HPC).
Setting [17] is: dose: 200.0 mg/kg/injection, schedule: Q01DX009 (ip), vehicle: Klucel (hydroxypropylcellulose) (HPC).
The mark [18] stands for this setting: dose: 400.0 mg/kg/injection, schedule: Q01DX009 (ip), vehicle: Klucel (hydroxypropylcellulose) (HPC).
Setting [19] is: dose: 50.0 mg/kg/injection, schedule: Q04DX003 (ip), vehicle: saline.
Setting [20] is: dose: 100.0 mg/kg/injection, schedule: Q01DX009 (ip), vehicle: saline.
Setting [21] is: dose: 100.0 mg/kg/injection, schedule: Q04DX003 (ip), vehicle: saline.
[22] abbreviates: dose: 75.0 mg/kg/injection, schedule: Q04DX003 (ip), vehicle: saline.

The structures appear in SMILES notation. Values joined by “and” are separate entries in the source; they are usually repeats but may differ in a detail not shown here. Equal values may be shown once. Toxic doses and inconclusive results are not listed.

`CC(C)C(C=O)(CCN(C)Cc1ccccc1)c1cccc2ccccc12` (stereo unspecified): the T/C was 93 % of control (dose: 100.0 mg/kg/injection, schedule: Q04DX003 (ip), vehicle: saline with Tween-80); 92 % of control (dose: 200.0 mg/kg/injection, schedule: Q04DX003 (ip), vehicle: saline with Tween-80); 100 % of control (dose: 400.0 mg/kg/injection, schedule: Q04DX003 (ip), vehicle: saline with Tween-80).
Regarding `[I][Ga]([I])[I]`, the T/C is 101 % of control under setting [1], 108 % of control under setting [2] and 111 % of control under setting [3].
In the case of `O=c1[nH]c(=O)n(CCCOc2ccccc2)cc1CCc1ccccc1`, the T/C is 91 % of control under setting [4], 94 % of control under setting [5] and 87 % of control under setting [6].
Turning to `CC1OC(OC2C(O[C@H]3CC[C@@]4(C)C(=CC[C@H]5[C@@H]6C[C@@H]7O[C@]8(CC[C@H](C)CN8)[C@@H](C)[C@@H]7[C@@]6(C)CC[C@@H]54)C3)OC(CO)C(O)C2OC2OC(CO)C(O)C(O)C2O)C(O)C(O)C1O` (stereo partly specified), the T/C is, setting by setting: (dose: 5.0 mg/kg/injection, schedule: Q01DX001 (ip), vehicle: other) 97 % of control; (dose: 10.0 mg/kg/injection, schedule: Q01DX001 (ip), vehicle: other) 109 % of control; (dose: 20.0 mg/kg/injection, schedule: Q01DX001 (ip), vehicle: other) 106 % of control.
In the case of `CCCCCCCCCCCCCCCC(=O)Nc1cccc2cnccc12`, the T/C reads like this: under setting [7], 100 % of control; under setting [8], 97 % of control; under setting [9], 105 % of control.
`O=c1[nH]nc(N2CCOCC2)c(=O)[nH]1`: the T/C runs as follows: under setting [1], 104 % of control; under setting [2], 104 % of control; under setting [3], 96 % of control.
On to `Cc1ccccc1C(C)(O)c1cnc(C)n1Cc1ccccc1` (stereo unspecified), for which the T/C is, setting by setting: under setting [10], 94 % of control and 98 % of control; under setting [11], 97 % of control and 103 % of control; under setting [12], 95 % of control and 103 % of control; under setting [13], 97 % of control and 100 % of control; under setting [14], 98 % of control and 100 % of control; under setting [15], 95 % of control and 101 % of control.
As to `Cc1cc(NC(=O)C(=O)Nc2cc(C)on2)no1`, the T/C is, setting by setting: under setting [16], 93 % of control; under setting [17], 100 % of control; under setting [18], 93 % of control.
As for `NNC12CCC(c3ccccc31)c1ccccc12`, the T/C was 96 % of control (dose: 100.0 mg/kg/injection, schedule: Q04DX003 (ip), vehicle: saline sonified) and 101 % of control (dose: 200.0 mg/kg/injection, schedule: Q04DX003 (ip), vehicle: saline sonified).
`CCCN=C(N)c1ccc(NC(=O)c2ccc(C(=O)Nc3ccc(C(N)=NCCC)cc3)c(Cl)c2)cc1`: the T/C is, setting by setting: (dose: 1.25 mg/kg/injection, schedule: Q01DX Z (ip), vehicle: water) 98 % of control; (dose: 2.5 mg/kg/injection, schedule: Q01DX Z (ip), vehicle: water) 101 % of control; (dose: 6.5 mg/kg/injection, schedule: Q01DX Z (ip), vehicle: carboxymethylcellulose (CMC)) 155 % of control; (dose: 13.0 mg/kg/injection, schedule: Q01DX Z (ip), vehicle: carboxymethylcellulose (CMC)) 121 % of control; (dose: 62.0 mg/kg/injection, schedule: Q01DX Z (oral), vehicle: water) 104 % of control; (dose: 125.0 mg/kg/injection, schedule: Q01DX Z (oral), vehicle: water) 110 % of control. Further, the T/C is, setting by setting: (dose: 250.0 mg/kg/injection, schedule: Q01DX Z (oral), vehicle: water) 104 % of control; (dose: 500.0 mg/kg/injection, schedule: Q01DX Z (oral), vehicle: water) 104 % of control.
Take `NC1(CO)COC(c2ccccc2)OC1` (stereo unspecified): the T/C reads like this: (dose: 12.5 mg/kg/injection, schedule: Q01DX009 (ip), vehicle: saline) 102 % of control; (dose: 12.5 mg/kg/injection, schedule: Q04DX003 (ip), vehicle: saline) 102 % of control; (dose: 25.0 mg/kg/injection, schedule: Q01DX009 (ip), vehicle: saline) 94 % of control; (dose: 25.0 mg/kg/injection, schedule: Q04DX003 (ip), vehicle: saline) 96 % of control; (dose: 50.0 mg/kg/injection, schedule: Q01DX009 (ip), vehicle: saline) 96 % of control and 104 % of control; under setting [19], 105 % of control. Besides, the T/C is, setting by setting: (dose: 100.0 mg/kg/injection, schedule: Q01DX009 (ip), vehicle: saline sonified) 96 % of control; under setting [20], 112 % of control; under setting [21], 107 % of control and 110 % of control.
In the case of `O=C(O)CCc1ccccc1`, the T/C was 98 % of control under setting [19]; 92 % of control under setting [10]; 104 % of control under setting [21]; 95 % of control under setting [12]; 95 % of control (dose: 200.0 mg/kg/injection, schedule: Q04DX003 (ip), vehicle: saline); 86 % of control under setting [14]. For the same molecule, the T/C (dose: 400.0 mg/kg/injection, schedule: Q04DX003 (ip), vehicle: saline) was 98 % of control.
As for `CC(C)/C(=N\[N+](C)(C)C)c1ccccc1`, the T/C was 97 % of control (dose: 18.8 mg/kg/injection, schedule: Q04DX003 (ip), vehicle: saline); 100 % of control (dose: 37.5 mg/kg/injection, schedule: Q04DX003 (ip), vehicle: saline); 103 % of control (dose: 75.0 mg/kg/injection, schedule: Q01DX001 (ip), vehicle: saline); 100 % of control under setting [22].
For `CSC1C(OC(=O)c2ccccc2)C(COC(=O)c2ccccc2)OC1n1cnc2ncnc(NC(=O)c3ccccc3)c21` (stereo unspecified), the T/C (dose: 100.0 mg/kg/injection, schedule: Q01DX005 (ip), vehicle: saline) was 100 % of control and the T/C (dose: 200.0 mg/kg/injection, schedule: Q01DX005 (ip), vehicle: saline) was 92 % of control.
Regarding `Fc1ccccc1-c1nnc(-c2ccccc2)o1`, the T/C was 98 % of control under setting [7], 113 % of control under setting [8] and 103 % of control under setting [9].
For `CC/C=C(CC)/C(=C/CC)CC`, the T/C is, setting by setting: under setting [1], 97 % of control; under setting [20], 98 % of control; under setting [2], 105 % of control; (dose: 200.0 mg/kg/injection, schedule: Q01DX009 (ip), vehicle: saline) 96 % of control; under setting [3], 102 % of control.
On to `O=S(=O)(c1ccc(Br)cc1)C(F)(F)F`, for which the T/C runs as follows: under setting [11], 101 % of control; under setting [13], 101 % of control; under setting [15], 86 % of control.
Consider `CCN(C(=S)c1ccccc1)c1ccc(C(=O)OC)cc1`, for which the T/C by setting is: under setting [22], 100 % of control; under setting [4], 100 % of control; (dose: 150.0 mg/kg/injection, schedule: Q04DX003 (ip), vehicle: saline) 102 % of control; under setting [5], 104 % of control; (dose: 300.0 mg/kg/injection, schedule: Q04DX003 (ip), vehicle: saline) 97 % of control; under setting [6], 100 % of control.
Turning to `CCCN(CCC)CCNCC(Cc1ccccc1)c1ccccc1` (stereo unspecified), the T/C is, setting by setting: (dose: 50.0 mg/kg/injection, schedule: Q04DX002 (ip), vehicle: Klucel (hydroxypropylcellulose) (HPC)) 99 % of control; (dose: 100.0 mg/kg/injection, schedule: Q04DX002 (ip), vehicle: Klucel (hydroxypropylcellulose) (HPC)) 99 % of control.
As to `COc1ccc2[nH]c3c(c2c1)CSc1ccccc1-3`, the T/C under setting [16] was 110 % of control, the T/C under setting [17] is 104 % of control and the T/C under setting [18] was 94 % of control.
